Experiments:
[1] = test system: cuboids from a human colorectal tumor biopsy; assay: CytC in supernatant of drug-treated human tumor cuboids, ELISA; type: cell-based; details: three days treatment; duplicated supernatant samples; same drug concentrations
Method: (§1) Measurement of CytC from the supernatant of human microdissected cancer tissue cultured with drugs using the aptasensor platform. A study was conducted to assess the aptasensor platform's ability to quantify CytC secretion from human cuboids after drug treatments for three days in culture with Staurosporine, FOLFOX (a combination of fluorouracil and oxaliplatin), and FOLFIRI (a combination of fluorouracil and irinotecan), in comparison to the dimethyl sulfoxide (DMSO) vehicle control. Uniform-sized cuboids were prepared from a human colorectal tumor biopsy. Each drug condition was prepared in duplicate. Subsequently, the supernatants were collected and the level of CytC released from the cuboids after cell death was measured using the aptasensor platform. To validate the platform's measurements, the results were compared with those obtained from ELISA (FIG. 4D). […] In some cases, the platform even indicated higher production rates. Duplicates for both the sensor and for the ELISA were consistent. […] While the trend in measurements for supernatant 1 and supernatant 2 was similar between sensor reading and ELISA, the higher concentration observed in sensor readings may stem from variations in the sensor-specific calibration curves.
(§2) Human colorectal cancer tumor supernatant. Colorectal tumor biopsy was obtained from a person with metastatic cancer who had been off treatment for a year. […]

[2] = test system: cuboids from a human colorectal tumor biopsy; assay: CytC in supernatant of drug-treated human tumor cuboids, aptasensor platform; type: cell-based; details: three days treatment; Staurosporine 1 μM, FOLFOX 1 μg/mL 5FU+1 μg/mL Oxaliplatin, FOLFIRI 5FU+Irinotecan
Method: as §1, §2

## CN[C@@H]1C[C@H]2O[C@@](C)([C@@H]1OC)n1c3ccccc3c3c4c(c5c6ccccc6n2c5c31)C(=O)NC4 [Staurosporine]
[1]
  CytC production relative to DMSO control vehicle (ELISA): 4.23 fold
[2]
  CytC production relative to DMSO control vehicle (aptasensor platform): ~3 fold
